Results on three compounds are retold here after US6420535B1, “6-O-carbamate ketolide derivatives” (Abbott Laboratories, priority 1999, dated 2002).

Each structure is given as a SMILES string. Values after ≈ are worked out from the molar mass of the structure shown. Bounds are passed on as bounds.

What all share (type): cell-based
The test system of one test is Candida albicans CCH 442. Nature of the test: In vitro antibacterial MIC, agar dilution (BHI agar). The following applies: 35-37° C., 20 to 24 hours, unit assumed. How it is done: (§1) Representative compounds of the present invention were assayed in vitro for antibacterial activity as follows: Twelve petri dishes containing successive aqueous dilutions of the test compound mixed with 10 mL of sterilized Brain Heart Infusion (BHI) agar (Difco 0418-01-5) were prepared. Each plate was inoculated with 1:100 (or 1:10 for slow-growing strains, such as Micrococcus and Streptococcus) dilutions of up to 32 different microorganisms, using a Steers replicator block. The inoculated plates were incubated at 35-37° C. for 20 to 24 hours. In addition, a control plate, using BHI agar containing no test compound, was prepared and incubated at the beginning and end of each test.
(§2) An additional plate containing a compound having known susceptibility patterns for the organisms being tested and belonging to the same antibiotic class as the test compound was also prepared and incubated as a further control, as well as to provide test-to-test comparability. Erythromycin A was used for this purpose.
(§3) After incubation, each plate was visually inspected. The minimum inhibitory concentration (MIC) was defined as the lowest concentration of drug yielding no growth, a slight haze, or sparsely isolated colonies on the innoculum spot as compared to the growth control. The results of this assay, which relate to the antibacterial activity of the compounds of the invention, are reported below in Table 1.
(In general: In agar dilution, organisms are placed on agar that contains the substance at set levels.)

The next test deals with Escherichia coli JUHL. The test is described as above. To be noted: 35-37° C., 20 to 24 hours, unit assumed. The protocol:
as §1, §2, §3

The next test relates to Escherichia coli SS. Described as above. The following applies: 35-37° C., 20 to 24 hours, unit assumed. The protocol:
as §1, §2, §3

The test system of test [1] is Micrococcus luteus ATCC 4698. Described as above. The following applies: 35-37° C., 20 to 24 hours, unit assumed. How it is done: as §1, §2, §3
For test [2], the system named is Micrococcus luteus ATCC 9341. Described as above. The following applies: 35-37° C., 20 to 24 hours, unit assumed. How it is done: as §1, §2, §3
The test system of test [3] is Mycobacterium smegmatis ATCC 114. The test is described as above. To be noted: 35-37° C., 20 to 24 hours, unit assumed. How it is done:
as §1, §2, §3

In test [4] the test system is Nocardia asteroides ATCC997O. Described as above. The following applies: 35-37° C., 20 to 24 hours, unit assumed. How it is done:
as §1, §2, §3

In test [5] the test system is Staphylococcus aureus 1775. The description is as above. To be noted: 35-37° C., 20 to 24 hours, unit assumed. The protocol: as §1, §2, §3
Test [6] deals with Staphylococcus aureus A-5278. The description is as above. To be noted: 35-37° C., 20 to 24 hours, unit assumed. How it is done:
as §1, §2, §3

Test [7] has as its system Staphylococcus aureus A5177. The test is described as above. The following applies: 35-37° C., 20 to 24 hours, unit assumed. How it is done: as §1, §2, §3
Test [8] has as its system Staphylococcus aureus ATCC 6538P. The description is as above. The following applies: 35-37° C., 20 to 24 hours, unit assumed. How it is done: as §1, §2, §3
The subject of test [9] is Staphylococcus aureus CMX 553. Described as above. The following applies: 35-37° C., 20 to 24 hours, unit assumed. The protocol:
as §1, §2, §3

Test [10] deals with Staphylococcus aureus CMX 642A. Described as above. The following applies: 35-37° C., 20 to 24 hours, unit assumed. How it is done: as §1, §2, §3
In test [11] the test system is Staphylococcus aureus NCTC10649M. The test is described as above. The following applies: 35-37° C., 20 to 24 hours, unit assumed. The protocol: as §1, §2, §3
The test system of test [12] is Staphylococcus epidermidis 3519. Described as above. The following applies: 35-37° C., 20 to 24 hours, unit assumed. How it is done:
as §1, §2, §3

The test system of test [13] is Streptococcus agalactiae CMX 508. The test is described as above. To be noted: 35-37° C., 20 to 24 hours, unit assumed. The protocol:
as §1, §2, §3

The test system of test [14] is Streptococcus bovis A-5169. The test is described as above. To be noted: 35-37° C., 20 to 24 hours, unit assumed. How it is done:
as §1, §2, §3

Test [15] deals with Streptococcus pyogenes 930. Described as above. The following applies: 35-37° C., 20 to 24 hours, unit assumed. The protocol: as §1, §2, §3
The test system of test [16] is Streptococcus pyogenes EES61. Described as above. The following applies: 35-37° C., 20 to 24 hours, unit assumed. How it is done: as §1, §2, §3
For test [17], the system named is Streptococcus pyogenes PIU 2548. The test is described as above. The following applies: 35-37° C., 20 to 24 hours, unit assumed. How it is done: as §1, §2, §3
The test system of a further test is Escherichia coli DC-2. The description is as above. To be noted: 35-37° C., 20 to 24 hours, unit assumed. The protocol:
as §1
(§4) An additional plate containing a compound having known susceptibility patterns for the organisms being tested and belonging to the same antibiotic class as the test compound was also prepared and incubated as a further control, as well as to provide test-to-test comparability.
(§5) After incubation, each plate was visually inspected. The minimum inhibitory concentration (MIC) was defined as the lowest concentration of drug yielding no growth, a slight haze, or sparsely isolated colonies on the innoculum spot as compared to the growth control.

The test system of test [18] is Haemophilis influenzae DILL AMP R. In words: Separate in vitro antibacterial assay (H. Influenza / S. Pneumonia). The following applies: protocol as for Table 1, unit assumed. The protocol: as §1, §2, §3
(§6) In a separate assay representative compounds of the invention were assayed in vitro for antibacterial activity against H. Influenza Dill AMP R strain and S. Pneumonia, according to the protocol described above. The results of this assay, which relate to the antibacterial activity of compounds of the invention against the H. Influenza Dill AMP R and S. Pneumonia organisms, are shown below in Table 2.

The subject of test [19] is Streptococcus pneumonia 5649. The description is as above. To be noted: protocol as for Table 1, unit assumed. The protocol:
as §1, §2, §3, §6

Test [20] relates to Streptococcus pneumonia ATCC63O3. The description is as above. The following applies: protocol as for Table 1, unit assumed. How it is done: as §1, §2, §3, §6
For test [21], the system named is Streptococcus pneumonia GYR 1171. Described as above. The following applies: protocol as for Table 1, unit assumed. How it is done:
as §1, §2, §3, §6

Test [22] has as its system Streptococcus pneumonia 5979. The test is described as above. To be noted: protocol as for Table 1, unit assumed. How it is done:
as §1, §4, §5

As a reminder, the MIC is the least concentration at which growth counts as inhibited. Regarding `CC[C@H]1OC(=O)[C@H](C)[C@@H](O[C@H]2C[C@@](C)(OC)[C@@H](O)[C@H](C)O2)[C@H](C)[C@@H](O[C@@H]2O[C@H](C)C[C@H](N(C)C)[C@H]2O)[C@](C)(O)C[C@@H](C)C(=O)[C@H](C)[C@@H](O)[C@]1(C)O` [Ery. A, Erythromycin A, reference compound], the MIC against Candida albicans CCH 442 was greater than 100 µg/mL; with Escherichia coli JUHL, greater than 100 µg/mL; in the test with Escherichia coli SS, 0.78 µg/mL (≈ 1.06 µM); in test [1], 0.2 µg/mL (≈ 0.273 µM); in test [2] it was 0.05 µg/mL (≈ 0.0681 µM); in test [3], 3.1 µg/mL (≈ 4.22 µM). Moreover, the MIC is 0.1 µg/mL (≈ 0.136 µM) in test [4]; greater than 100 µg/mL in test [5]; greater than 100 µg/mL in [6]; 3.1 µg/mL (≈ 4.22 µM) in [7]; 0.2 µg/mL (≈ 0.273 µM) in [8]; 0.39 µg/mL (≈ 0.531 µM) in test [9]. The MIC in [10] was 0.39 µg/mL (≈ 0.531 µM); in test [11], 0.39 µg/mL (≈ 0.531 µM); in [12] it was 0.39 µg/mL (≈ 0.531 µM); in [13], 0.05 µg/mL (≈ 0.0681 µM); in test [14] it was 0.02 µg/mL (≈ 0.0273 µM); in test [15], greater than 100 µg/mL. For the same compound, the figures for the MIC (in test [16]; in [17]; against Escherichia coli DC-2) were 0.05 µg/mL (≈ 0.0681 µM), 6.2 µg/mL (≈ 8.45 µM) and greater than 100 µg/mL, respectively. Further, the MIC (antibacterial activity, Table 2) in test [18] is 4 µg/mL (≈ 5.45 µM); in [19], 16 µg/mL (≈ 21.8 µM); in test [20], 0.06 µg/mL (≈ 0.0818 µM); in [21], 0.06 µg/mL (≈ 0.0818 µM).
`CCC1OC(=O)C(C)C(=O)C(C)C(OC2OC(C)CC(N(C)C)C2O)C(C)(OC(=O)NC(=O)c2ccccc2)CC(C)C(=NO)C(C)C2OC(=O)OC12C` (centres unmarked) [Ex. 1, Compound of Formula (IV-A): wherein A is —O—; X is N—OH; —M— is Absent, R^2 is Phenyl; and R^p is Hydrogen]: the MIC is greater than 100 µg/mL against Candida albicans CCH 442; 50 µg/mL with Escherichia coli JUHL; 0.39 µg/mL with Escherichia coli SS; 0.39 µg/mL in test [1]; 50 µg/mL in [3]; 0.78 µg/mL in test [4]. Moreover, the MIC was greater than 100 µg/mL in test [5]; greater than 100 µg/mL in test [6]; 0.39 µg/mL in test [7]; 0.39 µg/mL in test [8]; 0.39 µg/mL in test [11]; 0.39 µg/mL in [12]. Further, the MIC in test [13] is 0.02 µg/mL; in [14], 0.02 µg/mL; in [15] it was greater than 100 µg/mL; in [16], 0.02 µg/mL; in [17] it was 1.56 µg/mL; in the test on Escherichia coli DC-2, 100 µg/mL. For the same compound, the MIC (antibacterial activity, Table 2) is 8 µg/mL in test [18]; 2 µg/mL in test [19]; 0.03 µg/mL in test [20]; 0.03 µg/mL in [21]; greater than 64 µg/mL in test [22].
For the compound `CCC1OC(=O)C(C)C(=O)C(C)C(OC2OC(C)CC(N(C)C)C2O)C(C)(OC(N)=O)CC(C)C(=NO)C(C)C2OC(=O)OC12C` (centres unmarked) [Ex. 2, Compound of Formula (II-A), wherein A is —O—; X is N—OH; —M— is Absent; R^2 is Hydrogen, and R^p is Hydrogen], the MIC with Candida albicans CCH 442 was greater than 100 µg/mL; against Escherichia coli JUHL it was greater than 100 µg/mL; against Escherichia coli SS it was 1.56 µg/mL; in test [1], 1.56 µg/mL; in [3], 50 µg/mL; in test [4] it was 6.2 µg/mL. The minimum inhibitory concentration (MIC) in [5] is greater than 100 µg/mL; in test [6], greater than 100 µg/mL; in test [7], 3.1 µg/mL; in test [8], 1.56 µg/mL; in test [11], 1.56 µg/mL; in test [12], 1.56 µg/mL. Moreover, the MIC in test [13] is 0.39 µg/mL; in test [14] it was 0.2 µg/mL; in test [15] it was greater than 100 µg/mL; in test [16], 0.39 µg/mL; in test [17], 3.1 µg/mL; with Escherichia coli DC-2, greater than 100 µg/mL. Moreover, the MIC (antibacterial activity, Table 2) in test [18] is 8 µg/mL; in test [19], 8 µg/mL; in [20], 0.25 µg/mL; in test [21], 0.25 µg/mL; in [22], greater than 128 µg/mL.
